Test [1] deals with kaolin and carrageenan knee joint arthritis. Description: acute experimental arthritis by kaolin and carrageenan in the knee joint, spinal infusion of pregabalin or its R-isomer. Particulars: for PWL (thermal paw withdrawal latency) compared to baseline: 10 mg/mL infused into dorsal horn alone, before induction of arthritis; for thermal hyperalgesia (PWL) at 5.5 hours: 0.9 mg/mL infused into dorsal horn after development of arthritis; for PWL after infusion: 10 mg/mL infused after inflammation of the knee joint; for spontaneous pain (paw posture): both doses (0.9 and 10 mg/mL); for secondary thermal hyperalgesia (PWL) / abnormal paw posture indicative of spontaneous pain / reduction of knee joint swelling compared to aCSF rats: pre-treatment; for secondary thermal hyperalgesia (PWL): 10 mg/mL spinal infusion for 1.5 hours before kaolin and carrageenan, 4 hours post-injection; for abnormal paw posture indicative of spontaneous pain: spinal infusion before induction of arthritis; for reduction of knee joint swelling compared to aCSF rats: spinal infusion for 1.5 hours before induction of arthritis, P<0.05.
Method: Acute experimental arthritis was induced in rats by injection of kaolin and carrageenan into the knee joint. […] Concomitant with the injury to the joint tissue, both peripheral and central sensitization occurs, which is manifested in the awake rat as hyperalgesia, which can be easily quantified by measuring a reduction in paw withdrawal latencies to a radiant heat source. Both pregabalin and its R-stereoisomer (R-(−)-3-IBG) were administered before inflammation was induced, and after the inflammation was developed.
Thirty-six male Sprague-Dawley rats (235-380 g) were anesthetized with sodium pentobarbital (Nembutal; 50 mg/kg^−1 i.p.). A microdialysis fiber (200 μm o.d., 45000 MW Cut-off, Hospal AN69) was coated with epoxy resin, except for a 2 mm section. A small midline incision was made in the back at the level of the last rib. The muscle was then removed from around the T12 vertebra and a hole drilled in both lateral aspects. The microdialysis fiber was then passed transversely through the dorsal horn of the spinal cord between lumbar segments L4-L6 so that the permeable 2 mm of the fiber lay in the dorsal horn. The microdialysis fiber was connected to PE20 tubing (Becton and Dickson) which was then tunneled under the skin to the nape of the neck. The fiber was stabilized with dental cement. Artificial cerebrospinal fluid (aCSF) was pumped through the tubing at a rate of 5 μL/min for 1 hour before the PE20 was sealed and the animals allowed to recover.
As a measure of thermal hyperalgesia, animals were tested for paw withdrawal to radiant heat. On the day following fiber placement, animals were housed in small lucite cubicles on an elevated glass plate. Radiant heat was applied to the plantar surface of the heel of the hindpaw until the rat lifted the paw. The time at which this occurred was considered the paw withdrawal latency (PWL). Both paws were tested independently at 5-minute intervals, for a total of 5 trials. A mean of these five readings was used as the PWL. […] PWL was measured for a final time 4 hours after arthritis induction. In the post-treatment group, the animals were tested before induction of arthritis in the knee joint (control), 4-hours post-induction, and 1.5 hours after of drug infusion, i.e. 5.5 hours after arthritis induction. A decrease in the PWL to radiant heat in an animal with knee joint inflammation is indicative of secondary hyperalgesia.
The circumference of the knee joint was also measured before injection of kaolin and carrageenan (control) using a flexible tape measure. The extent of guarding of the hindpaw was also noted after arthritis was induced. To quantify these changes, the animals were graded by a subjective pain rating scale (0-5), where: 0 is normal; 1 is curling of the toes; 2 is eversion of the paw; 3 is partial weight bearing; 4 is non-weight bearing and guarding; and 5 is avoidance of any contact with the hindlimb.
Rats were anesthetized briefly with sodium methohexital (Brevital; 60 mg/kg^−1 i.p.) after the control behavioral test (post-treatment group) or after infusion of the drug (pre-treatment group). The knee joint was then injected with 3% kaolin and 3% carrageenan suspended in sterile saline (0.1 mL; pH 7.4). The knee joint was then flexed manually until the rat awoke (approximately 5 minutes).
All GABA analogs were dissolved in an artificial cerebral spinal fluid solution (aCSF) (pH 7.4, adjusted by bubbling with 95% CO2/5% O2) and infused through the spinal cord at 5 μL/min^−1. The animals received either pregabalin, R-(−)-3-IBG, or aCSF.

The test system of test [2] is SCW (PG-PS) induced reactivation arthritis, ankle swelling. Description: streptococcal cell wall (SCW) induced reactivation arthritis assay. Format: in vivo, Female Lewis rats. How it is done:
The assay is a streptococcal cell wall (SCW) induced reactivation arthritis assay. Female Lewis rats were injected intra-articularly with 10 μL of 100 p fraction peptidoglyean polysaccharide (PG-PS) suspended in phosphate buffered saline (PBS). The contralateral joints were injected with PBS as control. Systemic challenge with 100 μg of PG-PS was given via the tail vein 21 days after the initial inoculation. The animals were dosed orally three times a day with pregabalin (3, 10, and 30 mg/kg) on a 12-hour cycle for 72 hours. The first dose was given 1 hour before the systemic challenge.
The volume of the ankles increased by about 0.5 mL within 72 hours. Pregabalin at 10 and 30 mg/kg dose dependently attenuated the increase in edema up to 40% during the 72-hour observation period.

The record followed here is patent US6887902B2, “Anti-inflammatory method using gamma-aminobutyric acid (GABA) analogs” (Warner-Lambert Company, priority 1997, dated 2005).

As for `CC(C)C[C@H](CN)CC(=O)O` [Pregabalin, (S)-3-(aminomethyl)-5-methylhexanoic acid], the “PWL (thermal paw withdrawal latency) compared to baseline” value in test [1] is “did not change PWL”. The “thermal hyperalgesia (PWL) at 5.5 hours” value in test [1] (post-treatment) was “reduced the thermal hyperalgesia”. For the same molecule, the PWL after infusion entry in test [1] (post-treatment) is reported as “return of the PWL to the control value”. The “spontaneous pain (paw posture)” value in test [1] (post-treatment) is on record as “spontaneous pain was also reduced”. In addition, the “comparison of the isomers in reducing thermal hyperalgesia” value in test [1] (post-treatment, spinal infusion) is “more effective in reducing thermal hyperalgesia than its R-isomer”. For the same molecule, in test [1], the “secondary thermal hyperalgesia (PWL)” value is listed as “no secondary thermal hyperalgesia was observed”. The “abnormal paw posture indicative of spontaneous pain” value in test [1] was “prevented the development of abnormal paw posture”. The “reduction of knee joint swelling compared to aCSF rats” value in test [1] was “approximately 30%”. In addition, the “attenuation of the increase in edema” value in test [2] (10 and 30 mg/kg oral, dose dependent, 72-hour observation period) is listed as “up to 40%”. The “Swelling (delta edema, mL)” value in test [2] (Day 22, pregabalin oral 3.0 mg/kg, vehicle group 0.20) was determined as 0.12 mL; in test [2] (Day 22, pregabalin oral 10.0 mg/kg, vehicle group 0.20) it was 0.04 mL; in test [2] (Day 22, pregabalin oral 30.0 mg/kg, vehicle group 0.20), 0.06 mL; in test [2] (Day 23, pregabalin oral 3.0 mg/kg, vehicle group 0.45), 0.38 mL; in test [2] (Day 23, pregabalin oral 10.0 mg/kg, vehicle group 0.45), 0.25 mL; in test [2] (Day 23, pregabalin oral 30.0 mg/kg, vehicle group 0.45) it was 0.20 mL. The “Swelling (delta edema, mL)” value in test [2] (Day 24, pregabalin oral 3.0 mg/kg, vehicle group 0.50) came to 0.50 mL; in test [2] (Day 24, pregabalin oral 10.0 mg/kg, vehicle group 0.50), 0.31 mL; in test [2] (Day 24, pregabalin oral 30.0 mg/kg, vehicle group 0.50), 0.21 mL.
With `CC(C)C[C@@H](CN)CC(=O)O` [R-(−)-3-IBG], in test [1], the “PWL (thermal paw withdrawal latency) compared to baseline” value is recorded as “did not change PWL”, the “secondary thermal hyperalgesia (PWL)” value is given as “no secondary thermal hyperalgesia was observed”, the “abnormal paw posture indicative of spontaneous pain” value is recorded as “prevented the development of abnormal paw posture” and the “reduction of knee joint swelling compared to aCSF rats” value was “approximately 30%”. In addition, in test [1] (post-treatment), the “thermal hyperalgesia (PWL) at 5.5 hours” value was “reduced the thermal hyperalgesia”, the PWL after infusion result is listed as “return of the PWL to the control value” and the “spontaneous pain (paw posture)” value is listed as “spontaneous pain was also reduced”.
